# Laboratory results as given in patent publication EP2742942A1, “Niacinamide for inducing generation of antimicrobial peptides” (Unilever N.V., priority 2012, dated 2014).
# How the values were obtained:
# LL-37 gene expression = LL-37 gene expression in primary keratinocytes, quantitative real-time PCR; assay type: cell-based; settings: Homo sapiens, Keratinocyte, 18 hours, Niacinamide 1.22 mg/ml, control = 1.0, read-out: Fold change (LL-37 gene expression)
# Protocol: (§1) Human primary keratinocytes prepared from neonatal foreskin were obtained from (Lonza India) and cultured in serum-free keratinocyte growth medium with defined growth supplements (Invitrogen). Keratinocytes were cultured in 12 and 24 well tissue culture plates (BD Falcon) and treated cells at a confluence of 60-70%. Keratinocytes stimulation was performed in KGM with growth supplement and all experiment was done between passages 3 to 5.
# (§2) NHEKs were cultured in 12-well plates (BD, Falcon) at 6 × 10^4 cells per well. After 24h of incubation, 50% media was replaced with fresh media. On day 3, cells were treated with different concentrations of Niacinamide with fresh media for 16-18 hours. Cells were harvested in RLT buffer (Qiagen) and samples were stored at -70°C till used for RNA isolation.
# (§3) Total RNA was isolated using RNeasy Mini kit from Qiagen, according to the manufacturer's instructions. […]
# (§4) Real time PCR was carried out using SYBR green method as per the manufacturer's (Bio-Rad, USA) instructions using thermal controlled Chromo4 machine (Bio-Rad, USA). 5µl of 1:10 diluted sample of cDNA and 1.5pmole of specific primers were used in each reaction by using a standardized PCR program (i.e. 94°C for 5 minutes followed by 50 cycles of "94°C for 15 seconds, 60°C for 30sec, 72°C for 30 seconds) and results were analysed by using 2^-ΔΔCT method. […]
# [1] = tested on: psoriasin gene expression; test: Psoriasin gene expression in primary keratinocytes, quantitative real-time PCR; assay type: cell-based, human
# Protocol: as §1, §2, §3, §4
# Psoriasin (S100A7) = test: Psoriasin ELISA of keratinocyte culture supernatant; assay type: cell-based, human; settings: detected by ELISA, keratinocytes
# Protocol: as §1
# Primary keratinocytes were seeded in 12-well plates (BD falcon). At 60 to 70% confluency, cells were treated with different concentration of Niacinamide for 72h. After 72 hours of incubation cell culture supernatant was stored at -70°C until used for ELISA. All ELISA reagents and samples were brought to room temperature prior to the assay. Cell culture supernatant samples were centrifuged at 5000 rpm for 10 minutes before use. 100 ↘l of undiluted sample of cell culture supernatant was used for checking the psoriasin level by using ELISA kit from CircuLex. The clinical samples were diluted in to 1:25 in dilution buffer and used 100↘l from diluted samples for checking psoriasin level by ELISA. In case of LL-37, 100 ↘l of undiluted samples from in vitro as well as clinical samples were used for checking LL-37 level by ELISA (Hycult Biotech).
# E. coli 10536 = test: In vivo forearm study with lotion, residual E. coli by cup scrub method; settings: lotion with 3% niacinamide, forearm of human volunteers, twice a day
# Protocol: To confirm the findings from the in vitro experiments, the effect of Niacinamide on healthy human volunteers was tested in vivo. The volunteers were asked to apply a lotion with and without niacinamide (3%) on their forearm twice a day. After 7 days of application, the spots were extracted in PBS and ELISA was performed for detection of Psoriasin and LL-37 AMPs.
# Glycerol stock of E. coli (10536) was inoculated in 30 ml TSB medium and culture was incubated overnight at 37°C in shaker incubator. Overnight culture was sub cultured on TSA slants and incubated overnight at 37°C then the slants were stored at 4°C (once in 15 days, slants were prepared freshly).
# E. coli culture from slant was sub cultured on TSA plate and incubated overnight at 37°C. Overnight grown plate culture of E. coli was suspended in 6 to 7 ml of Sodium phosphate buffer (10mM). Density of culture was adjusted to 1 OD620 using spectrophotometer and used for clinical studies.
# This technique is included in the ASTM method, E2752 - 10 (Standard guide for evaluation of residual effectiveness of antibacterial). The cup and rod were made up of Teflon and the area of the cup is 2.84 cm^2. The cup was used to hold the buffer on skin and rod was used for scrubbing, for better recovery of skin AMP and/or residual bacteria from skin. The duration of scrubbing was 1 min. […]
# E. coli = test: Human volunteer study with Vaseline healthy white cream, E. coli count on forearm; assay type: in vivo; settings: two times per day for 1 day, control 4.3
# Protocol: An experiment using the following protocol was conducted: • 1. Volunteers were given Lux™ soap for use and asked not to use any other soap or moisturizers on their forearm for 7 days before the start of the study. • 2. Volunteer were be asked to apply Vaseline™ healthy white base cream and Vaseline™ healthy white formulated with Niacinamide (1%, 2% and 3%) at various spots on the forearm. • 3. Volunteers were asked to repeat […] for two times per day for 1 day, morning after bath and night just before sleep. The volunteers were asked not to wash the forearms after application of formulations at night. • 4. On day 2, the forearms were washed by the investigator with a non-antibacterial soap bar and asked the volunteers to wait for 6 hours under controlled conditions (24 ±2°C and 45%±5% RH) • 5. After 6 hours of waiting, ∼10^6 E. coli were applied on the forearm to each spot separately. The contact time of E. coli on skin was 15 minutes. • 6. After 15 minutes, the sample was extracted from the forearm using the cup-rod method. • 7. E. coli was counted using standard microbiological method.
# Elafin = test: AMP secretion by primary keratinocytes, mass spectrometry of secretome (PSM); assay type: cell-based; settings: Niacinamide 1mg/ml, 72 hours; control sample 1
# Protocol: (§5) The following procedure was used to determine the AMPs induced as a consequence of niacinamide on keratinocte cells. • 1. Primary keratinocytes were seeded in 12 well plates with 1 ml of KGM complete media. (Seeded 60,000 cells/well at Passage-4). • 2. Plates were incubated in the CO2 incubator for 48 hours. • 3. After 48 hours of incubation, cells were treated with and without Niacinamide 1mg/ml concentration in duplicate wells (fresh media was used for treatment). • 4. After 72 hours of incubation, cell culture supernatant was transferred in to 1.5 ml eppendorf tubes respectively. • 5. Samples were then passed through 20 kDa cutoff filters to remove high molecular weight proteins. • 6. Eluted samples, containing <20kDa proteins were transferred to 15ml sterile centrifuge tubes. • 7. Then, chilled acetone (HPLC grade) was added to the eluted samples (1 ml of sample:4ml of acetone) • 8. Tubes were transferred to -20°C for 24 hours to precipitate the proteins. • 9. After 24 hours, tubes were centrifuged at 14000g for 40 minutes at 4°C. • 10. The supernatant was discarded and the protein pellet was analysed using mass spectrometry for proteins.
# (§6) The increased level of secretion of AMPs is measured by a PSM value (a peptide spectrum match scoring function) which is a relative measure of abundance of the peptide in the secretome. Table - 5
# Lactoferrin = test: as above; assay type: cell-based; settings: Niacinamide 1mg/ml, 72 hours; control sample 1
# Protocol: as §5, §6
# Lipocalin -2 = test: as above; assay type: cell-based; settings: Niacinamide 1mg/ml, 72 hours; control sample 1
# Protocol: as §5, §6
# Lipocalin-1 = test: as above; assay type: cell-based; settings: Niacinamide 1mg/ml, 72 hours; control sample 0
# Protocol: as §5, §6
# Lysozyme C = test: as above; assay type: cell-based; settings: Niacinamide 1mg/ml, 72 hours; control sample 2
# Protocol: as §5, §6
# S-100-A11 = test: as above; assay type: cell-based; settings: Niacinamide 1mg/ml, 72 hours; control sample 2
# Protocol: as §5, §6
# S-100-A8 = test: as above; assay type: cell-based; settings: Niacinamide 1mg/ml, 72 hours; control sample 1
# Protocol: as §5, §6
# S100-A9 = test: as above; assay type: cell-based; settings: Niacinamide 1mg/ml, 72 hours; control sample 2
# Protocol: as §5, §6
compound,measurement,setting,value
NC(=O)c1cccnc1 [Niacinamide],fold induction at 1220 µg/mL,LL-37 gene expression,2.4
same,induction of psoriasin gene expression (in words),[1]; 1.22 mg/ml,unable to induce psoriasin gene expression
same,fold induction at 1220 µg/mL,"[1]; Homo sapiens, Keratinocyte, primary keratinocytes, 18 hours, Niacinamide 1.22 mg/ml, control = 1.0, read-out: Fold change (psoriasin gene expression)",1.1
same,secretion of psoriasin AMP (in words),Psoriasin (S100A7),able to induce the secretion of psoriasin AMP
same,Residual log of E.Coli measured after one day of applying a composition,"E. coli 10536; n= 28, basal 4.21, lotion without niacinamide 3.44",2.31
same,Residual log of E.Coli measured after 7 days of applying a composition,"E. coli 10536; n= 34, basal 4.41, lotion without niacinamide 3.56",2.39
same,Residual log of E. Coli,E. coli; 1 % niacinamide in Vaseline healthy white cream,3.5
same,Residual log of E. Coli,E. coli; 2% niacinamide in Vaseline healthy white cream,3.0
same,Residual log of E. Coli,E. coli; 3% niacinamide in Vaseline healthy white cream,2.7
same,"PSM value with niacinamide treatment, Elafin",Elafin,3
same,"PSM value with niacinamide treatment, Lactoferrin",Lactoferrin,7
same,"PSM value with niacinamide treatment, Lipocalin -2",Lipocalin -2,4
same,"PSM value with niacinamide treatment, Lipocalin-1",Lipocalin-1,2
same,"PSM value with niacinamide treatment, Lysozyme C",Lysozyme C,4
same,"PSM value with niacinamide treatment, S-100-A11",S-100-A11,5
same,"PSM value with niacinamide treatment, S-100-A8",S-100-A8,3
same,"PSM value with niacinamide treatment, S100-A9",S100-A9,4
